Source: US20210116454A1, “METHODS FOR TREATING A HEMATOLOGICAL CANCER AND THE USE OF COMPANION BIOMARKERS FOR 2-(2,6-DIOXOPIPERIDIN-3-YL)-4-((2-FLUORO-4-((3-MORPHOLINOAZETIDIN-1-YL)METHYL)BENZYL)AMINO)ISOINDOLINE-1,3-DIONE” (CELGENE CORPORATION, priority 2019, published 2021)
Like-named read-outs stand apart in the source and are kept apart here.

Key:
Assay type in all cases: cell-based
OCI-LY-3 = experiment: 5-day viable cell number and apoptosis (7-AAD exclusion/Annexin V flow cytometry)
How it was run: (§1)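 5 d tx, escalating doses, DLBCL lines; viable cells counted; apoptosis via 7-AAD exclusion/Annexin V by flow.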

OCI-LY-7 = experiment: as above
How it was run: as §1

RC-K8 = experiment: as above
How it was run: as §1

SU-DHL-16 = experiment: as above
How it was run: as §1

SU-DHL-2 = experiment: as above
How it was run: as §1

Toledo = experiment: as above
How it was run: as §1

WSU-DLCL2 = experiment: as above
How it was run: as §1

Oci-Ly10 DoxoR = experiment: Viable cells/apoptosis in doxorubicin-resistant and matching parental lines; details: for IC50: Homo sapiens
Experimental: (§2) The activity of Compound 1 was also evaluated in cell lines with acquired resistance to doxorubicin (Table 4). Doxorubicin-resistant cell lines (DoxoR) were generated by culturing the parental cell lines in vitro with increasing concentrations of doxorubicin for a long period of time (˜9 to 18 months) until they were able to grow in the presence of a relatively high concentration of doxorubicin (1 μM). Matching parental (M-Parent) cells were generated by maintaining the parental cells in culture without treatment for the same amount of time (˜9 to 18 months). The growth-inhibitory effect of doxorubicin on parental cells and the corresponding resistant cells was evaluated by measuring the number of viable cells and extent of apoptosis by 7-AAD exclusion and Annexin V staining using flow cytometry.
(§3) The effects of Compound 1 on the viability of doxorubicin-resistant versus parental cell lines was determined (FIG. 2; Table 5).

Oci-Ly10 M-Parental = experiment: as above; details: for IC50: Homo sapiens
Experimental: as §2, §3

SU-DHL-4 DoxoR = experiment: as above; details: for IC50: Homo sapiens
Experimental: as §2, §3

SU-DHL-4 M-Parental = experiment: as above; details: for IC50: Homo sapiens
Experimental: as §2, §3

U2932 DoxoR = experiment: as above; details: for IC50: Homo sapiens
Experimental: as §2, §3

U2932 M-Parental = experiment: as above; details: for IC50: Homo sapiens
Experimental: as §2, §3

WSU-DLCL2 DoxoR = experiment: as above; details: for IC50: Homo sapiens
Experimental: as §2, §3

WSU-DLCL2 M-Parental = experiment: as above; details: for IC50: Homo sapiens
Experimental: as §2, §3

ZFP91 = target: T1, ZFP91 (Homo sapiens, UniProt Q96JP5+Q96SW2); experiment: Enzyme fragment complementation (EFC) degradation assay, DF15 cells expressing ePL-tagged substrate; details: for Emax: remaining substrate; for DC50: read-out: ZFP91 degradation EC50
T1 construct: expressed in transfected cells; host or cells: DF15 cells

SU-DHL-2^CRBNWT cells = experiment: Live-cell imaging of caspase-3 activation; details: time course of 112 hours
Experimental: To confirm the timing of induction of apoptosis and its cereblon dependency, a live-cell imager that provides kinetic, real-time caspase-3 activation (indicator of apoptosis) data was used. SU-DHL-2^CRBNWT cells treated with Compound 1 were analyzed for caspase-3 activation by following the cleavage in cells of a specific caspase-3 enzyme substrate over a time course of 112 hours. Compound 1-dependent induction of caspase-3 activity began at 12 hours post treatment and reached maximal induction at ˜72 hours (FIG. 5 D).

[1] = Homo sapiens, OCI-Ly7, OCI-LY-7 cells (Table 3), read-out: IC50
[2] = Homo sapiens, RCK8, RC-K8 cells (Table 3), read-out: IC50
[3] = Homo sapiens, SU-DHL-16 cells (Table 3), read-out: IC50
[4] = Homo sapiens, SU-DHL-2 cells (Table 3), read-out: IC50
[5] = Homo sapiens, WSUDLCL2, WSU-DLCL2 cells (Table 3), read-out: IC50
[6] = WSUDLCL2, read-out: Doxorubicin IC50
[7] = Homo sapiens, OCI-Ly3, 120 h, OCI-LY-3 cells, 5 days
[8] = Homo sapiens, OCI-Ly7, 120 h, OCI-LY-7 cells, 5 days
[9] = Homo sapiens, RCK8, 120 h, RC-K8 cells, 5 days
[10] = Homo sapiens, 120 h, SU-DHL-16 cells, 5 days
[11] = Homo sapiens, 120 h, SU-DHL-2 cells, 5 days
[12] = Homo sapiens, 120 h, Toledo cells, 5 days
[13] = Homo sapiens, WSUDLCL2, 120 h, WSU-DLCL2 cells, 5 days
[14] = WSUDLCL2, 120 h, 5 days, read-out: IC50

T1 sequence (Q96JP5 whole entry, the tested form may be a part): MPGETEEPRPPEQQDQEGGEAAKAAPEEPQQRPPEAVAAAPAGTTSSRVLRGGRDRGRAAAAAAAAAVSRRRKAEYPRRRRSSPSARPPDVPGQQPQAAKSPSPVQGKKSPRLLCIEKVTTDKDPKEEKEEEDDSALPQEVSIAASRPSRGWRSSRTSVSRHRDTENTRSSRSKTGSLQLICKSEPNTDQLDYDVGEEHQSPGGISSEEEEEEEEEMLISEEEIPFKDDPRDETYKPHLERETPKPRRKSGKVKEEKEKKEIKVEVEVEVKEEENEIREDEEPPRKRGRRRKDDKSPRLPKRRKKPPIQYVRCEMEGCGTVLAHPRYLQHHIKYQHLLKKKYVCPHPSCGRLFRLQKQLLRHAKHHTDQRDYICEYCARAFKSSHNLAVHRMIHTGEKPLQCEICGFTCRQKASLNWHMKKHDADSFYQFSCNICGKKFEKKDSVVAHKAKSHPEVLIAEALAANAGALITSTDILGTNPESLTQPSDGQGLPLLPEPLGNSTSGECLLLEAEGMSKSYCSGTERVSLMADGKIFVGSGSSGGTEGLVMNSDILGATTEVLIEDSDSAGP
T1 sequence (Q96SW2 whole entry, the tested form may be a part): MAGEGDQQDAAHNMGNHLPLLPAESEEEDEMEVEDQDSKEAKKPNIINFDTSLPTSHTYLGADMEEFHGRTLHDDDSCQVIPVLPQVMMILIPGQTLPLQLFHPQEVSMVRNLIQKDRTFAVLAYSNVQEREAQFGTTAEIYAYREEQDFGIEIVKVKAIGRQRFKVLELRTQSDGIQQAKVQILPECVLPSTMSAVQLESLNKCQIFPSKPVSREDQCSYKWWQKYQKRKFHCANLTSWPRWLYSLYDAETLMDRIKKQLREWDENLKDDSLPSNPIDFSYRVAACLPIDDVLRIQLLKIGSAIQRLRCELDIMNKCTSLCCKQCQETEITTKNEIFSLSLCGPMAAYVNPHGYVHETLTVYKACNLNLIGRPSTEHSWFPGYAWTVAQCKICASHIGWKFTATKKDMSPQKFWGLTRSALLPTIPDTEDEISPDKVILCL
T1 sequence (Q16531 whole entry partner, the tested form may be a part): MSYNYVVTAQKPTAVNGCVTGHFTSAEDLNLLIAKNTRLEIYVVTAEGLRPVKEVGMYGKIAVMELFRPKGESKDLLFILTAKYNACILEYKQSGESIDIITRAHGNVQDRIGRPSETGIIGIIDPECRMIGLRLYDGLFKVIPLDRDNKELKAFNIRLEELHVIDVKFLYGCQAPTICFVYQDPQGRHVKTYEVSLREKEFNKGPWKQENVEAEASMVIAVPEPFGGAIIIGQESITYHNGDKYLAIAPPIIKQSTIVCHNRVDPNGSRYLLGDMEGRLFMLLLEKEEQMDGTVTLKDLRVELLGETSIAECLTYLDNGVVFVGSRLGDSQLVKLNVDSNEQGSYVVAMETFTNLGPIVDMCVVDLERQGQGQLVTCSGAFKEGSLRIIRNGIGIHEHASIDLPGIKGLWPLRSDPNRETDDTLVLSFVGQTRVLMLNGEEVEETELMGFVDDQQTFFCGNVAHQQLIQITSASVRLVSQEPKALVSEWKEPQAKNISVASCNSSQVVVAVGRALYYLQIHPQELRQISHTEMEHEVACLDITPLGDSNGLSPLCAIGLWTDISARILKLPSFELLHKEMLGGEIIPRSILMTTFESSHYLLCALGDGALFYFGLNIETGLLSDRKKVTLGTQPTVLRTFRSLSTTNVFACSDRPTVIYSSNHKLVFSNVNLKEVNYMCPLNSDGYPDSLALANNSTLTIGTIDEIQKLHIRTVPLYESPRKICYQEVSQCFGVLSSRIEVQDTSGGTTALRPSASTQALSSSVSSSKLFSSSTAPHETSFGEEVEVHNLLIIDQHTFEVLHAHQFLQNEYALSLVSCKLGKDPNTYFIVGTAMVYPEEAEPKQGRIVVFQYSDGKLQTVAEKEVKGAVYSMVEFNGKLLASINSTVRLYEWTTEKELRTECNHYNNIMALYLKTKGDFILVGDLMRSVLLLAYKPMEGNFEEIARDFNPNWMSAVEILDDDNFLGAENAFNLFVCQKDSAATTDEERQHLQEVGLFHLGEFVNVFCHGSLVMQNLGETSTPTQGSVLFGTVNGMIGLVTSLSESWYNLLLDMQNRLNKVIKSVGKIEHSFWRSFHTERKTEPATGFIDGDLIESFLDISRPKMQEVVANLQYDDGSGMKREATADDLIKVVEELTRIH

## COc1cccc2c1C(=O)c1c(O)c3c(c(O)c1C2=O)C[C@@](O)(C(=O)CO)C[C@@H]3O[C@H]1C[C@H](N)[C@H](O)[C@H](C)O1 [Doxorubicin, reference compound]
OCI-LY-3; Homo sapiens, OCI-Ly3, OCI-LY-3 cells (Table 3)
  IC50: 11.6 µM
OCI-LY-7; [1]
  IC50: 5 µM
RC-K8; [2]
  IC50: 3.5 µM
SU-DHL-16; [3]
  IC50: 1.5 µM
SU-DHL-2; [4]
  IC50: 1.3 µM
Toledo; Homo sapiens, Toledo cells (Table 3), read-out: IC50
  IC50: 4 µM
WSU-DLCL2; [5]
  IC50: 1.5 µM
Oci-Ly10 DoxoR; Oci-Ly10 DoxoR, read-out: Doxorubicin IC50
  IC50: 1.4 µM
Oci-Ly10 M-Parental; Oci-Ly10 M-Parental, read-out: Doxorubicin IC50
  IC50: 0.02 µM
SU-DHL-4 DoxoR; SU-DHL-4 DoxoR, read-out: Doxorubicin IC50
  IC50: 1.5 µM
SU-DHL-4 M-Parental; read-out: Doxorubicin IC50
  IC50: 0.01 µM
U2932 DoxoR; U2932 DoxoR, read-out: Doxorubicin IC50
  IC50: 1.08 µM
U2932 M-Parental; read-out: Doxorubicin IC50
  IC50: 0.01 µM
WSU-DLCL2 DoxoR; [6]
  IC50: 1.6 µM
WSU-DLCL2 M-Parental; [6]
  IC50: 0.01 µM

## O=C1CC[C@H](N2C(=O)c3cccc(NCc4ccc(CN5CC(N6CCOCC6)C5)cc4F)c3C2=O)C(=O)N1 [Compound 1, (S)-2-(2,6-dioxopiperidin-3-yl)-4-((2-fluoro-4-((3-morpholinoazetidin-1-yl)methyl)benzyl)amino)isoindoline-1,3-dione]
OCI-LY-3; [7]
  EC50: 0.00046 µM
  Emax: 0.753%
OCI-LY-3; OCI-LY-3 cells, 5 days
  % Viable Cells AUC: 986.1
  % Viable Cells Emax: 84.33%
  % Viable Cells Sensitivity: Limited
  Apoptosis AUC: 7.009
  Apoptosis Sensitivity: Limited
OCI-LY-7; [8]
  EC50: 0.0128 µM
  Emax: 68.8%
OCI-LY-7; Homo sapiens, OCI-Ly7, 120 h, OCI-LY-7 cells, 5 days, read-out: % Viable Cells IC50
  IC50: 0.0036 µM
OCI-LY-7; [1]
  IC50: 62 µM
OCI-LY-7; OCI-LY-7 cells, 5 days
  % Viable Cells AUC: 61.98
  % Viable Cells Emax: 1.657%
  % Viable Cells Sensitivity: High (highly sensitive to Compound 1 with less than 6% viable cells remaining (Emax) after treatment)
  Apoptosis AUC: 673.2
  Apoptosis Sensitivity: High
RC-K8; [9]
  EC50: 0.23 µM
  Emax: 9.53%
RC-K8; Homo sapiens, RCK8, 120 h, RC-K8 cells, 5 days, read-out: % Viable Cells IC50
  IC50: 0.1 µM
RC-K8; [2]
  IC50: 409 µM
RC-K8; RC-K8 cells, 5 days
  % Viable Cells AUC: 409.1
  % Viable Cells Emax: 34.92%
  % Viable Cells Sensitivity: Intermediate (intermediate sensitivity with 15% to 55% cell viability)
  Apoptosis AUC: 81.59
  Apoptosis Sensitivity: Intermediate
SU-DHL-16; [10]
  EC50: 0.262 µM
  Emax: 18.2%
SU-DHL-16; Homo sapiens, 120 h, SU-DHL-16 cells, 5 days, read-out: % Viable Cells IC50
  IC50: 0.12 µM
SU-DHL-16; [3]
  IC50: 360 µM
SU-DHL-16; SU-DHL-16 cells, 5 days
  % Viable Cells AUC: 359.7
  % Viable Cells Emax: 30.33%
  % Viable Cells Sensitivity: Intermediate (intermediate sensitivity with 15% to 55% cell viability)
  Apoptosis AUC: 159.1
  Apoptosis Sensitivity: Intermediate
SU-DHL-2; [11]
  EC50: 0.00778 µM
  Emax: 75.2%
SU-DHL-2; Homo sapiens, 120 h, SU-DHL-2 cells, 5 days, read-out: % Viable Cells IC50
  IC50: 0.0013 µM
SU-DHL-2; [4]
  IC50: 7 µM
SU-DHL-2; SU-DHL-2 cells, 5 days
  % Viable Cells AUC: 6.871
  % Viable Cells Emax: 1.264%
  % Viable Cells Sensitivity: High (highly sensitive to Compound 1 with less than 6% viable cells remaining (Emax) after treatment)
  Apoptosis AUC: 745
  Apoptosis Sensitivity: High
Toledo; [12]
  EC50: 0.5 µM
  Emax: 14%
Toledo; Homo sapiens, 120 h, Toledo cells, 5 days, read-out: % Viable Cells IC50
  IC50: 0.5 µM
Toledo; Toledo cells, 5 days
  % Viable Cells AUC: 507
  % Viable Cells Emax: 52.68%
  % Viable Cells Sensitivity: Intermediate (intermediate sensitivity with 15% to 55% cell viability)
  Apoptosis AUC: 114.8
  Apoptosis Sensitivity: Intermediate
WSU-DLCL2; [13]
  EC50: 0.077 µM
  Emax: 47.8%
WSU-DLCL2; Homo sapiens, WSUDLCL2, 120 h, WSU-DLCL2 cells, 5 days, read-out: % Viable Cells IC50
  IC50: 0.02 µM
WSU-DLCL2; [5]
  IC50: 174 µM
WSU-DLCL2; WSU-DLCL2 cells, 5 days
  % Viable Cells AUC: 173.8
  % Viable Cells Emax: 1.36%
  % Viable Cells Sensitivity: High (highly sensitive to Compound 1 with less than 6% viable cells remaining (Emax) after treatment)
  Apoptosis AUC: 464.5
  Apoptosis Sensitivity: High
Oci-Ly10 DoxoR; OCI-Ly10, 120 h, Oci-Ly 10 DoxoR, 5 days, read-out: IC50
  IC50: 0.3 µM
Oci-Ly10 DoxoR; OCI-Ly10 doxorubicin-resistant vs parental
  greater sensitivity of resistant cells compared to parental cells: approximately 20 fold
Oci-Ly10 DoxoR; Oci-Ly 10 DoxoR, relative to DMSO
  Emax (% viable cells remaining): 22%
Oci-Ly10 M-Parental; OCI-Ly10, 120 h, Oci-Ly 10 M-Parental, 5 days, read-out: IC50
  IC50: 6 µM
Oci-Ly10 M-Parental; Oci-Ly 10 M-Parental, relative to DMSO
  Emax (% viable cells remaining): 47%
SU-DHL-4 DoxoR; 120 h, SU-DHL-4 DoxoR, 5 days, read-out: IC50
  IC50: 0.1 µM
SU-DHL-4 DoxoR; SU-DHL-4 DoxoR, relative to DMSO
  Emax (% viable cells remaining): 8%
SU-DHL-4 DoxoR; SU-DHL-4 doxorubicin-resistant vs parental
  greater sensitivity in the doxorubicin-resistant cell line: > 100 fold
SU-DHL-4 M-Parental; 120 h, 5 days, read-out: IC50
  IC50: > 10 µM
SU-DHL-4 M-Parental; relative to DMSO
  Emax (% viable cells remaining): 74%
U2932 DoxoR; 120 h, U2932 DoxoR, 5 days, read-out: IC50
  IC50: 1.5 µM
U2932 DoxoR; U2932 DoxoR, relative to DMSO
  Emax (% viable cells remaining): 31%
U2932 DoxoR; U2932 doxorubicin-resistant vs M-parental
  lower sensitivity in doxorubicin-resistant cells: 20 fold
U2932 M-Parental; 120 h, 5 days, read-out: IC50
  IC50: 0.06 µM
U2932 M-Parental; relative to DMSO
  Emax (% viable cells remaining): 19%
WSU-DLCL2 DoxoR; [14]
  IC50: 0.1 µM
WSU-DLCL2 DoxoR; relative to DMSO
  Emax (% viable cells remaining): 9%
WSU-DLCL2 M-Parental; [14]
  IC50: 0.01 µM
WSU-DLCL2 M-Parental; relative to DMSO
  Emax (% viable cells remaining): 23%
ZFP91; DF15, DF15 ePL-ZFP91, 1 hour
  Emax: 64%
ZFP91; DF15, DF15 ePL-ZFP91, 2 hours
  Emax: 26.5%
ZFP91; DF15, DF15 ePL-ZFP91, 6 hours
  Emax: 4%
ZFP91; DF15, DF15 ePL-ZFP91, 24 hours
  Emax: 2.5%
ZFP91; DF15 ePL-ZFP91, 1 hour
  DC50: 0.001 µM
ZFP91; DF15 ePL-ZFP91, 2 hours
  DC50: 0.0005 µM
ZFP91; DF15 ePL-ZFP91, 6 hours
  DC50: 0.0002 µM
ZFP91; DF15 ePL-ZFP91, 24 hours
  DC50: 0.0001 µM
SU-DHL-2^CRBNWT cells
  start of induction of caspase-3 activity post treatment: 12 h
  time of maximal induction of caspase-3 activity: ~72 h
